The text below walks through data of ChEMBL document CHEMBL3997773, “Synthesis of C-4-Substituted Steviol Derivatives and Their Inhibitory Effects against Hepatitis B Virus” (J Nat Prod, 2016).

Active and inactive are the calls of the source. The rule behind the calls is not given here.

Test system in the first data set: not listed separately
As to the kind of experiment: Antiviral activity against Hepatitis B virus subtype adw2 infected in human HepG2.2.15 cells assessed as inhibition of HBeAg secretion by EIA.
Conditions: not given
As a reminder, the IC50 is the concentration that inhibits the measured activity by half. In the case of `C=C1C[C@@]23CC[C@H]4[C@@](C)(CCC[C@@]4(C)NC(=O)c4ccc(OCC)cc4)[C@@H]2CC[C@]1(O)C3`, the IC50 was 3.4 µM.
With `C=C1C[C@@]23CC[C@H]4[C@@](C)(CCC[C@@]4(C)NC(=O)Nc4cc(OC)c(OC)c(OC)c4)[C@@H]2CC[C@]1(O)C3`, the concentration for half-maximal inhibition (IC50) was 7.7 to 13.6 µM.
Still for that read-out and setting: the value for `C=C1C[C@@]23CC[C@H]4[C@@](C)(CCC[C@@]4(C)NC(=O)c4ccc(I)cc4)[C@@H]2CC[C@]1(O)C3` was 23.9 µM.

In a further data set the test system is Hepatitis B virus subtype adw2. Described as above.
Conditions: not given
On to `C=C1C[C@@]23CC[C@H]4[C@@](C)(CCC[C@@]4(C)NC(=O)CC)[C@@H]2CC[C@]1(O)C3`, for which the inhibition result is “Active”.
With `C=C1C[C@@]23CC[C@H]4[C@@](C)(CCC[C@@]4(C)NC(=O)c4ccc(F)cc4)[C@@H]2CC[C@]1(O)C3`, the inhibition result was “Active”.
Turning to `C=C1C[C@@]23CC[C@H]4[C@@](C)(CCC[C@@]4(C)NC(=O)c4ccc(CC)cc4)[C@@H]2CC[C@]1(O)C3`, the inhibition result was “Active”.
With `C=C1C[C@@]23CC[C@H]4[C@@](C)(CCC[C@@]4(C)NC(=O)c4cccs4)[C@@H]2CC[C@]1(O)C3`, the inhibition result is “Active”.
For the compound `C=C1C[C@@]23CC[C@H]4[C@@](C)(CCC[C@@]4(C)NC(=O)c4ccc(Br)cc4)[C@@H]2CC[C@]1(O)C3`, the inhibition entry is “Active”.

The next data set relates to Hepatitis B virus subtype adw2. As to the kind of experiment: Antiviral activity against Hepatitis B virus subtype adw2 infected in human HuH7 cells assessed as inhibition of viral DNA replication by RT-PCR method. Type of data set: functional, cell-based.
Conditions: not given
For the compound `C=C1C[C@@]23CC[C@H]4[C@@](C)(CCC[C@@]4(C)NC(=O)c4ccc(F)cc4)[C@@H]2CC[C@]1(O)C3`, the inhibition entry was “Active”.
Same read-out and setting: next, `C=C1C[C@@]23CC[C@H]4[C@@](C)(CCC[C@@]4(C)NC(=O)c4ccc(CC)cc4)[C@@H]2CC[C@]1(O)C3`: “Active”.
Turning to `C=C1C[C@@]23CC[C@H]4[C@@](C)(CCC[C@@]4(C)NC(=O)c4cccs4)[C@@H]2CC[C@]1(O)C3`, the inhibition entry was “Active”.
Take `C=C1C[C@@]23CC[C@H]4[C@@](C)(CCC[C@@]4(C)NC(=O)c4ccc(Br)cc4)[C@@H]2CC[C@]1(O)C3`: the inhibition result is “Active”.

Test system in a further data set: not listed separately
Description: Antiviral activity against Hepatitis B virus in human HepG2.2.15 cells assessed as inhibition of HBsAg secretion by EIA.
Conditions: not given
As for `C=C1C[C@@]23CC[C@H]4[C@@](C)(CCC[C@@]4(C)NC(=O)Nc4cc(OC)c(OC)c(OC)c4)[C@@H]2CC[C@]1(O)C3`, the IC50 lay within 11.7 to 14 µM.
Take `C=C1C[C@@]23CC[C@H]4[C@@](C)(CCC[C@@]4(C)NC(=O)c4ccc(I)cc4)[C@@H]2CC[C@]1(O)C3`: the IC50 was 14.2 µM.

Test system in the next data set: not listed separately
Description: Selectivity index, ratio of TC50 for human HepG2.2.15 cells to IC50 for Hepatitis B virus subtype adw2 infected in human HuH7 cells assessed as inhibition of HBsAg secretion.
Conditions: not given
Turning to `C=C1C[C@@]23CC[C@H]4[C@@](C)(CCC[C@@]4(C)NC(=O)c4ccc(OCC)cc4)[C@@H]2CC[C@]1(O)C3`, the selectivity ratio amounted to 20.9.
For `C=C1C[C@@]23CC[C@H]4[C@@](C)(CCC[C@@]4(C)NC(=O)c4ccc(I)cc4)[C@@H]2CC[C@]1(O)C3`, the selectivity ratio was determined as 29.1.

Another data set deals with Hepatitis B virus subtype adw2. As to the kind of experiment: Antiviral activity against Hepatitis B virus subtype adw2 infected in human HepG2.2.15 cells assessed as inhibition of HBsAg secretion by EIA.
Conditions: not given
As to `C=C1C[C@@]23CC[C@H]4[C@@](C)(CCC[C@@]4(C)NC(=O)CC)[C@@H]2CC[C@]1(O)C3`, the inhibition entry is “Active”.
On to `C=C1C[C@@]23CC[C@H]4[C@@](C)(CCC[C@@]4(C)NC(=O)c4ccc(F)cc4)[C@@H]2CC[C@]1(O)C3`, for which the inhibition result is “Active”.
Same read-out and setting: the value for `C=C1C[C@@]23CC[C@H]4[C@@](C)(CCC[C@@]4(C)NC(=O)c4ccc(CC)cc4)[C@@H]2CC[C@]1(O)C3` was “Active”; that for `C=C1C[C@@]23CC[C@H]4[C@@](C)(CCC[C@@]4(C)NC(=O)c4cccs4)[C@@H]2CC[C@]1(O)C3` was “Active”.
Consider `C=C1C[C@@]23CC[C@H]4[C@@](C)(CCC[C@@]4(C)NC(=O)c4ccc(Br)cc4)[C@@H]2CC[C@]1(O)C3`, for which the inhibition result is “Active”.

Test system in another data set: not listed separately
As to the kind of experiment: Selectivity index, ratio of TC50 for human HepG2.2.15 cells to IC50 for Hepatitis B virus subtype adw2 infected in human HepG2.2.15 cells assessed as inhibition of HBeAg secretion.
Conditions: not given
As for `C=C1C[C@@]23CC[C@H]4[C@@](C)(CCC[C@@]4(C)NC(=O)c4ccc(OCC)cc4)[C@@H]2CC[C@]1(O)C3`, the selectivity ratio amounted to 16.6.
The same measure, in the same setting: next, `C=C1C[C@@]23CC[C@H]4[C@@](C)(CCC[C@@]4(C)NC(=O)c4ccc(I)cc4)[C@@H]2CC[C@]1(O)C3`: 17.3.

Test system in the next data set: not listed separately
Description: Antiviral activity against Hepatitis B virus subtype adw2 infected in human HuH7 cells assessed as inhibition of HBsAg secretion by EIA. Type of data set: functional, cell-based. Particulars: Huh-7.
As to `C=C1C[C@@]23CC[C@H]4[C@@](C)(CCC[C@@]4(C)NC(=O)c4ccc(OCC)cc4)[C@@H]2CC[C@]1(O)C3`, the IC50 stood at 2.7 µM.

Test system in a further data set: not listed separately
Description: Antiviral activity against Hepatitis B virus in human HepG2.2.15 cells assessed as inhibition of viral DNA replication by RT-PCR method.
Conditions: not given
For `C=C1C[C@@]23CC[C@H]4[C@@](C)(CCC[C@@]4(C)NC(=O)c4ccc(OCC)cc4)[C@@H]2CC[C@]1(O)C3`, the IC50 is 4 µM.
Regarding `C=C1C[C@@]23CC[C@H]4[C@@](C)(CCC[C@@]4(C)NC(=O)c4ccc(I)cc4)[C@@H]2CC[C@]1(O)C3`, the IC50 came out at 21.9 µM.

Test system in a further data set: not listed separately
As to the kind of experiment: Cytotoxicity against human HepG2.2.15 cells assessed as reduction in cell viability after 3 days by MTS assay. Particulars: read-out: TC50. (In general: Tetrazolium dyes change colour on reduction, which living cells bring about.)
For the compound `C=C1C[C@@]23CC[C@H]4[C@@](C)(CCC[C@@]4(C)NC(=O)c4ccc(OCC)cc4)[C@@H]2CC[C@]1(O)C3`, the CC50 at 72 h was 56.3 µM.
As for `C=C1C[C@@]23CC[C@H]4[C@@](C)(CCC[C@@]4(C)NC(=O)c4ccc(I)cc4)[C@@H]2CC[C@]1(O)C3`, the CC50 at 72 h is 413 µM.

Test system in a further data set: not listed separately
Description: Antiviral activity against Hepatitis B virus subtype adw2 in human HepG2.2.15 cells assessed as inhibition of viral DNA replication by RT-PCR method.
Conditions: not given
In the case of `C=C1C[C@@]23CC[C@H]4[C@@](C)(CCC[C@@]4(C)NC(=O)Nc4cc(OC)c(OC)c(OC)c4)[C@@H]2CC[C@]1(O)C3`, the half-inhibitory concentration (IC50) is 6.3 µM.

Test system in another data set: not listed separately
As to the kind of experiment: Selectivity index, ratio of TC50 for human HepG2.2.15 cells to IC50 for Hepatitis B virus subtype adw2 infected in human HuH7 cells assessed as inhibition of viral DNA replication.
Conditions: not given
With `C=C1C[C@@]23CC[C@H]4[C@@](C)(CCC[C@@]4(C)NC(=O)c4ccc(OCC)cc4)[C@@H]2CC[C@]1(O)C3`, the selectivity ratio worked out at 14.1.
`C=C1C[C@@]23CC[C@H]4[C@@](C)(CCC[C@@]4(C)NC(=O)c4ccc(I)cc4)[C@@H]2CC[C@]1(O)C3`: the selectivity ratio was 18.8.
